IC50 data for 47 compounds are collected here from US7417045B2, “Heterocyclic substituted pyridine or phenyl compounds with CXCR3 antagonist activity” (Schering Corporation, priority 2005, dated 2008).

The experiment concerns the target T1, human CXCR3 (N-delta 4) (Homo sapiens, UniProt P49682).
T1 construct: CD8 leader (N); Flag tag; expressed in transfected cells; membranes
T1 sequence (P49682 5-368 limits assumed): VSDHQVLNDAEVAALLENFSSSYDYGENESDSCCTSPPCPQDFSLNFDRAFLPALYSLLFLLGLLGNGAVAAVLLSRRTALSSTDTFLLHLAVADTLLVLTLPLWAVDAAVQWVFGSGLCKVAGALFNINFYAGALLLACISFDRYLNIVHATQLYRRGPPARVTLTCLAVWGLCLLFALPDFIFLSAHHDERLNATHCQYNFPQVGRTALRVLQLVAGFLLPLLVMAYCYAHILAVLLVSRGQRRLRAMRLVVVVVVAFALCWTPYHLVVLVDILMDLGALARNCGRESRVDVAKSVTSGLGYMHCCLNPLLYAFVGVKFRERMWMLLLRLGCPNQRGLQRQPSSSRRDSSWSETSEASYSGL
The experiment is described as follows: Human CXCR3 (N-delta 4) Scintillation Proximity Assay (SPA), [125I] IP-10 binding. The following applies: [125I] IP-10 displacement, Ba/F3-hCXCR3 (N-delta 4) membranes. The text has this: The inventive compounds can readily be evaluated to determine activity at The CXCR3 receptors by known methods, such as, for example, Development of Human CXCR3 (N-delta 4) Binding Assay.
Cloning and Expression of Human CXCR3 (N-Delta 4):
The DNA encoding human CXCR3 was cloned by PCR using human genomic DNA (Promega, Madison, Wis.) as a template. The PCR primers were designed based on the published sequence of human orphan receptor GPR9 (1) with incorporated restriction sites, a Kozak consensus sequence, CD8 leader and Flag tag. The PCR product was subcloned into the mammalian expression vector pME18Sneo, a derivative of the SR-alpha expression vector (designated as pME18Sneo-hCXCR3 (N-delta 4).
IL-3-dependent mouse pro-B cells Ba/F3 were transfected by electroporation in 0.4 ml Dulbecco's PBS containing 4×10^6 cells with 20 μg of pME18Sneo-hCXCR3 (N-delta 4) plasmid DNA. Cells were pulsed at 400 Volts, 100 OHMs, 960 μFd. The transfected cells were under selection with 1 mg/ml G418 (Life Technologies, Gaithersburg, Md.). G418-resistant Ba/F3 clones were screened for CXCR3 expression by specific binding of [^125I] IP-10 (NEN Life Science Products, Boston, Mass.).
Preparation of Ba/F3-hCXCR3 (N-Delta 4) Membranes
Ba/F3 cells expressing human CXCR3 (N-delta 4) were pelleted and resuspended in the lysis buffer containing 10 mM HEPES, pH 7.5 and Complete® protease inhibitors (1 tablet per 100 ml) (Boehringer Mannheim, Indianapolis, Ind.) at a cell density of 20×10^6 cells per ml. After 5 minutes incubation on ice, cells were transferred to 4639 cell disruption bomb (Parr Instrument, Moline, Ill.) and applied with 1,500 psi of nitrogen for 30 minutes on ice. Large cellular debris was removed by centrifugation at 1,000× g. Cell membrane in the supernatant was sedimented at 100,000× g. The membrane was resuspended in the lysis buffer supplemented with 10% sucrose and stored at −80° C. Total protein concentration of the membrane was determined by BCA method from Pierce (Rockford, Ill.).
Human CXCR3 (N-Delta 4) Scintillation Proximity Assay (SPA)
For each assay point, 2 μg of membrane was preincubated for 1 hr with 300 μg wheat germ agglutinin (WGA) coated SPA beads (Amersham, Arlington Heights, Ill.) in the binding buffer (50 mM HEPES, 1 mM CaCl2, 5 mM MgCl2, 125 mM NaCl, 0.002% NaN3, 1.0% BSA) at room temperature. The beads were spun down, washed once, resuspended in the binding buffer and transferred to a 96-well Isoplate (Wallac, Gaithersburg, Md.). 25 pM of [^125I] IP-10 with tested compounds in a series of titration were added to start the reaction. After 3 hr reaction at room temperature, the amount of [^125I] IP-10 bound to the SPA beads was determined with a Wallac 1450 Microbeta counter.
Background: In a scintillation proximity assay essentially only radioactivity close to the scintillant gives light.

Turning to `CC[C@H]1CN(c2ncc(-c3ncc[nH]3)cc2Cl)CCN1C1CCN(Cc2ccc(Cl)cc2)CC1` [Compound 1], the IC50 turned out to be 0.2 nM. The compound further had an IC50 (IC50 rating) of less than 25 nM. As for `CC[C@H]1CN(c2ncc(-c3ncc[nH]3)cc2Cl)CCN1C1CCN(Cc2ccc(Br)cc2)CC1` [Compound 2], for the setting “IC50 rating”, the IC50 is less than 25 nM.

`CC[C@H]1CN(c2ncc(-c3ncc[nH]3)cc2Cl)CCN1C1CCN(Cc2ccc(I)cc2)CC1` [Compound 3] had an IC50 (IC50 rating) of less than 25 nM. Still for that read-out and setting: next, `CC[C@H]1CN(c2ncc(-c3ncc[nH]3)cc2Cl)CCN1C1CCN(Cc2ccc(Cl)cc2F)CC1` [Compound 4]: less than 25 nM; `CC[C@H]1CN(c2ncc(-c3ncc[nH]3)cc2Cl)CCN1C1CCN([C@H](C)c2ccc(Cl)cc2)CC1` [Compound 5]: less than 25 nM; `CC[C@H]1CN(c2ncc(-c3ncc[nH]3)cc2Cl)CCN1C1CCN(Cc2ccc(Cl)cc2/C(N)=N/O)CC1` [Compound 6]: less than 25 nM. For `CC[C@H]1CN(c2ncc(C3=NCCN3)cc2Cl)CCN1C1CCN([C@@H](CO)c2ccc(Cl)cc2)CC1` [Compound 7], the IC50 (IC50 rating) was less than 25 nM. `CC[C@H]1CN(c2ncc(-c3ncc[nH]3)cc2Cl)CCN1C1CCN(C(C)c2ccc(Cl)cc2)CC1` (stereo partly drawn) [Compound 8] returned a half-inhibitory concentration (IC50) (IC50 rating) of less than 25 nM. On the same count and under the same terms, for `CC[C@H]1CN(c2ncc(-c3ncc[nH]3)cc2Cl)CCN1C1CCN(Cc2ccc(Cl)cc2C(N)=O)CC1` [Compound 9] the value was less than 25 nM; for `CC[C@H]1CN(c2ncc(-c3ncc[nH]3)cc2Cl)CCN1C1CCN([C@@H](CO)c2ccc(Cl)cc2)CC1` [Compound 10], less than 25 nM. Consider `CC[C@H]1CN(c2ncc(C3=NCCN3)cc2Cl)CCN1C1CCN(Cc2ccc(F)cc2)CC1` [Compound 11], for which the IC50 (IC50 rating) was less than 25 nM. Regarding `CC[C@H]1CN(c2ncc(C3=NCCN3)cc2Cl)CCN1C1CCN(Cc2ccc(OC(F)(F)F)cc2)CC1` [Compound 12], where the note is “IC50 rating”, the half-inhibitory concentration (IC50) was less than 25 nM. For the setting “IC50 rating”, `CC[C@H]1CN(c2ncc(-c3ncc[nH]3)cc2Cl)CCN1C1CCN(Cc2ccc(OC(F)(F)F)cc2)CC1` [Compound 13] displayed an IC50 of less than 25 nM. Regarding `CC[C@H]1CN(c2ncc(-c3ncc[nH]3)cc2Cl)CCN1C1CCN(Cc2ccc(C#CCOC)cc2)CC1` [Compound 14], the IC50 (IC50 rating) is less than 25 nM. With `CC[C@H]1CN(c2ncc(C3=NCCN3)cc2Cl)CCN1C1CCN(C(CO)c2ccc(Cl)cc2)CC1` (stereo partly drawn) [Compound 15], where the note is “IC50 rating”, the IC50 is less than 25 nM. In the case of `CC[C@H]1CN(c2ncc(-c3ncc[nH]3)cc2Cl)CCN1C1CCN(Cc2ccc(C(=O)OC)cc2)CC1` [Compound 16], the IC50 (IC50 rating) was less than 25 nM.

`CC[C@H]1CN(c2ncc(-c3ncc[nH]3)cc2Cl)CCN1C1CCN(Cc2ccc(C#N)cc2)CC1` [Compound 17] returned an IC50 (IC50 rating) of less than 25 nM. In turn, `CC[C@H]1CN(c2ncc(-c3ncc[nH]3)cc2Cl)CCN1C1CCN(C(CO)c2ccc(Cl)cc2)CC1` (stereo partly drawn) [Compound 18] gave an IC50 (IC50 rating) of less than 25 nM. On the same count and under the same terms, for `CC[C@H]1CN(c2ncc(-c3ncc[nH]3)cc2Cl)CCN1C1CCN(Cc2ccc(-n3cccn3)cc2)CC1` [Compound 19] the value was less than 25 nM.

`CC[C@H]1CN(c2ccc(-c3ncc[nH]3)cc2Br)CCN1C1CCN(Cc2ccc(Cl)cc2F)CC1` [Compound 20] registered an IC50 (IC50 rating) of less than 25 nM. With `CCOC(CNC(=N)c1cc(Cl)ccc1CN1CCC(N2CCN(c3ncc(-c4ncc[nH]4)cc3Cl)C[C@@H]2CC)CC1)OCC` [Compound 21], the 50% inhibitory concentration (IC50) (IC50 rating) is less than 25 nM. In turn, `CC[C@H]1CN(c2ncc(-c3ncc[nH]3)cc2Cl)CCN1C1CCN(Cc2ccc(-c3csnn3)cc2)CC1` [Compound 22] returned an IC50 (IC50 rating) of less than 25 nM. As to `CC[C@H]1CN(c2ncc(-c3ncc[nH]3)cc2Cl)CCN1C1CCN(Cc2ccc(C#CC(C)(C)O)cc2)CC1` [Compound 23], the 50% inhibitory concentration (IC50) (IC50 rating) is less than 25 nM. On the same count and under the same terms, next, `CC[C@H]1CN(c2ncc(-c3ncc[nH]3)cc2Cl)CCN1C1CCN(Cc2ccc(C#CC(C)(C)C)cc2)CC1` [Compound 25]: less than 25 nM; `CC[C@H]1CN(c2ncc(C3=NCCN3)cc2Cl)CCN1C1CCN(Cc2ccc(Cl)cc2F)CC1` [Compound 26]: less than 25 nM. On the same count and under the same terms, for `CC[C@H]1CN(c2ncc(-c3nnco3)cc2Cl)CCN1C1CCN(Cc2ccc(Cl)cc2F)CC1` [Compound 27] the value was less than 25 nM. Compound `CC[C@H]1CN(c2ncc(-c3ncc[nH]3)cc2Cl)CCN1C1CCN(Cc2ccc(Cl)cc2-c2ncc[nH]2)CC1` [Compound 28] yielded an IC50 (IC50 rating) of less than 25 nM. Compound `CC[C@H]1CN(c2ncc(C3=NCCN3)cc2Cl)CCN1C1CCN(Cc2ccc(C#N)cc2)CC1` [Compound 29] returned an IC50 (IC50 rating) of less than 25 nM.

Compound `CC[C@H]1CN(c2ncc(-c3ncc[nH]3)cc2Cl)CCN1C1CCN([C@@H](C)c2ccc(Cl)cc2)CC1` [Compound 30] had an IC50 (IC50 rating) of less than 25 nM. `CC[C@H]1CN(c2ncc(-c3ncc[nH]3)cc2Cl)CCN1C1CCN(Cc2ccc(Cl)cc2C(C)(C)O)CC1` [Compound 31] came in with an IC50 (IC50 rating) of less than 25 nM.

Turning to `CC[C@H]1CN(c2ncc(-c3ncc[nH]3)cc2Cl)CCN1C1CCN(C(=O)c2ccc(Cl)cc2N)CC1` [Compound 32], the IC50 (IC50 rating) was less than 25 nM.

With `CC[C@H]1CN(c2ncc(-c3ncc[nH]3)cc2Cl)CCN1C1CCN(Cc2ccc(Cl)cc2C#N)CC1` [Compound 33], for the setting “IC50 rating”, the IC50 was less than 25 nM. Still for that read-out and setting: for `CC[C@H]1CN(c2ncc(C3=NCCN3)cc2Cl)CCN1C1CCN(Cc2ccc(C#CCOC)cc2)CC1` [Compound 34] the value was less than 25 nM. Same read-out and setting: next, `CC[C@H]1CN(c2ncc(-c3ncc[nH]3)cc2Cl)CCN1C1CCN([C@@H](C(=O)OC)c2ccc(Cl)cc2)CC1` [Compound 35]: less than 25 nM; `CC[C@H]1CN(c2ncc(-c3ncc[nH]3)cc2Cl)CCN1C1CCN([C@@H](C(=O)NC2CC2)c2ccc(Cl)cc2)CC1` [Compound 36]: less than 25 nM; `CC[C@H]1CN(c2ncc(-c3ncc[nH]3)cc2Cl)CCN1C1CCN(Cc2ccc(-c3ccccc3)cc2)CC1` [Compound 37]: less than 25 nM. The same measure, in the same setting: for `CC[C@H]1CN(c2ncc(-c3ncc[nH]3)cc2Cl)CCN1C1(C)CCN(C(CO)c2ccc(Cl)cc2)CC1` (stereo partly drawn) [Compound 38] the value was less than 25 nM.

Compound `CC[C@H]1CN(c2ncc(-c3nnc(CO)o3)cc2Cl)CCN1C1CCN(C(CO)c2ccc(Cl)cc2)CC1` (stereo partly drawn) [Compound 39] yielded a concentration for half-maximal inhibition (IC50) (IC50 rating) of less than 25 nM. Same read-out and setting: next, `CC[C@H]1CN(c2ncc(-c3ncc[nH]3)cc2Cl)CCN1C1CCN([C@@H](C(=O)OC)c2ccc(Br)cc2)CC1` [Compound 40]: less than 25 nM; `CC[C@H]1CN(c2ncc(-c3ncc[nH]3)cc2Cl)CCN1C1CCN(C(=O)c2ccc(Br)cc2)CC1` [Compound 41]: less than 25 nM. For the setting “IC50 rating”, `CC[C@H]1CN(c2ncc(C3=NCCN3)cc2Cl)CCN1C1CCN(C(=O)c2ccc(Cl)nc2N)CC1` [Compound 42] came in with an IC50 of less than 25 nM. Same read-out and setting: for `CC[C@H]1CN(c2ncc(-c3ncc[nH]3)cc2Cl)CCN1C1CCN(Cc2ccc(Cl)cc2C(=O)O)CC1` [Compound 43] the value was less than 25 nM; for `CC[C@H]1CN(c2ncc(C3=NCCN3)cc2Cl)CCN1C1CCN(Cc2ccc(Cl)cc2C(C)(C)O)CC1` [Compound 44], less than 25 nM.

In the case of `CC[C@H]1CN(c2ncc(C3=NC(C)CN3)cc2Cl)CCN1C1CCN(C(=O)c2ccc(Cl)cc2N)CC1` (stereo partly drawn) [Compound 45], the IC50 (IC50 rating) is less than 25 nM. Compound `CC[C@H]1CN(c2ncc(-c3ncc[nH]3)cc2Cl)CCN1C1CCN(C(=O)c2ccc(Cl)nc2N)CC1` [Compound 46] registered an IC50 (IC50 rating) of less than 25 nM. Still for that read-out and setting: for `CC[C@H]1CN(c2ncc(-c3ncc[nH]3)cc2Cl)CCN1C1CCN(C(=O)c2ccc(Cl)cc2)CC1` [Compound 47] the value was less than 25 nM; for `CC[C@H]1CN(c2ncc(-c3ncc[nH]3)cc2Cl)CCN1C1CCN(Cc2ccc(Cl)cc2-c2ncon2)CC1` [Compound 48], less than 25 nM.

In general, IC50 refers to the concentration at which inhibition is half-maximal. Read a low IC50 as inhibition by little substance.
